Measurements reported in patent US12152017B2, “Ketoamide compound and preparation method, pharmaceutical composition, and use thereof” (Shanghai Institute of Materia Medica, Chinese Academy of …, priority 2018, dated 2024).
“And” between values parts separate entries of the source, which are not always exact repeats. Equal entries are not always repeated. Where two headings read alike, the source gives them in different places.

How the values were obtained:
MERS-CoV pseudovirus = experiment: microbe, parasite or virus in culture; assay type: cell-based; conditions: Middle East respiratory syndrome-related coronavirus, Huh-7, read-out: MERS-CoV pseudovirus inhibitory activity IC50
[1] = Pharmacokinetic study in CD-1 mice (gavage, intravenous, intraperitoneal); assay type: in vivo; conditions: 20 mg/kg; for Cmax / Tmax / half-life / AUC(0-inf) / MRT inf / AUC(0-t): male, CD-1, mouse, plasma; for AUC(0-inf): read-out: AUC INF_obs; for MRT inf: read-out: MRT INF_obs
Description: Nine CD-1 mice, male, weighing 18-22 g, were randomly divided into 3 groups with 3 mice in each group. The test compounds were administered by gavage, intravenously and intraperitoneally according to the following schemes.
Before the test, they were fasted for 12 hours and were allowed to drink water freely, and were fed uniformly 2 h after administration.
There were 3 animals at each time point.
The solution for gavage administration was formulated with DMSO/0.5% HPMC (5/95, v/v) into the final concentration. Intravenous and intraperitoneal administration were formulated with DMSO/PEG300/EtOH/NaCl (5/40/5/50, v/v/v). Retention samples of the dosing solution (50 μL of the drug solution was taken and mixed well with 50 μL of DMSO before and after the administration) for testing.
The drug was administered according to the above dosage, the time of administration were recorded, and 20 μL of blood was collected from the mouse femoral plexus at the above set time point and placed in a heparinized test tube and centrifuged immediately at 11000 rpm for 5 min. 10 μL of plasma was immediately and accurately drawn into a centrifuge tube pre-filled with 100 μL of PK-IS solution (prepared with methanol:acetonitrile (1:1, v/v)), mixed well, and frozen to store at −20° C. for testing.

[2] = i.p. (20 mg/Kg per Table 3), individual animal
[3] = ip, i.p. (20 mg/Kg per Table 3), Mean of 3 mice
[4] = ip, i.p. (20 mg/Kg per Table 3), individual animal
[5] = ip, i.p. (20 mg/Kg per Table 3), individual animal, read-out: AUC last
[6] = po, p.o. (gavage 20 mg/Kg per Table 3), Mean of 3 mice
[7] = po, p.o. (gavage 20 mg/Kg per Table 3), Mean of 3 mice, read-out: AUC last (oral exposure)
[8] = po, p.o. (gavage 20 mg/Kg per Table 3), individual animal
[9] = po, p.o. (gavage 20 mg/Kg per Table 3), individual animal, read-out: AUC last
[10] = p.o. (gavage 20 mg/Kg per Table 3), individual animal
[11] = ip, i.p. (20 mg/Kg per Table 3), Mean of 3 mice, read-out: AUC last (exposure for intraperitoneal injection)

| Compound | IC50 (MERS-CoV pseudovirus) [nM] | AUC INF_obs [1, 2] | AUC last [1, 2] | C max [1, 2] | MRT INF_obs [1, 2] | T1/2 [1, 2] | Cmax [1, 3] [ng/mL] | Tmax [1, 3] [min] | half-life [1, 3] [min] | AUC(0-inf) [1, 3] [ng·h/mL] | MRT inf [1, 3] [h] | Cmax [1, 4] [ng/mL] | half-life [1, 4] [min] | AUC(0-inf) [1, 4] [ng·h/mL] | AUC(0-t) [1, 5] [ng·h/mL] | MRT inf [1, 4] [h] | Cmax [1, 6] [ng/mL] | Tmax [1, 6] [min] | half-life [1, 6] [min] | AUC(0-inf) [1, 6] [ng·h/mL] | other results |
| --- | --- | --- | --- | --- | --- | --- | --- | --- | --- | --- | --- | --- | --- | --- | --- | --- | --- | --- | --- | --- | --- |
| O=C(NCc1ccccc1)C(=O)[C@H](C[C@@H]1CCNC1=O)NC(=O)[C@H](CC1CCCCC1)NC(=O)c1ccc2ccccc2n1 [Example A42, N—((S)-1-(((S)-4-(benzylamino)-3,4-dione-1-((S)-2-oxopyrrolidine-3-yl)but-2-yl)amino)-3-cyclohexyl-1-oxopropan-2-yl)-quinoline-2-carboxamide] | 3.2 ± 0.6 | 10647 ng·h/mL and 11768 ng·h/mL | 10576 ng·h/mL and 11340 ng·h/mL | 3959 ng/mL and 5038 ng/mL | 3.41 h and 4.99 h | 3.67 h and 6.20 h | 4280 | 15 | 328 | 12000 | 4.93 | 3840 | 391 | 13700 | 13000 | 6.38 | 858 | 15 | 349 | 750 | Tmax [1, 4]: 15 min; AUC(0-t) [1, 7]: 742 ng·h/mL; MRT inf [1, 6]: 2.3 h; Cmax [1, 8]: 1020 ng/mL; Tmax [1, 8]: 15 min; half-life [1, 8]: 251 min; AUC(0-inf) [1, 8]: 791 ng·h/mL; AUC(0-t) [1, 9]: 787 ng·h/mL; MRT inf [1, 8]: 1.98 h; AUC INF_obs [1, 10]: 953 ng·h/mL and 506 ng·h/mL; AUC last [1, 10]: 945 ng·h/mL and 494 ng·h/mL; C max [1, 10]: 966 ng/mL and 588 ng/mL; MRT INF_obs [1, 10]: 2.10 h and 2.83 h; T1/2 [1, 10]: 5.52 h and 7.73 h |
| Cc1cnc(C(=O)N[C@@H](CC2CCCCC2)C(=O)N[C@@H](C[C@@H]2CCCNC2=O)C(=O)C(=O)NCc2ccccc2)o1 [Example A241] | 2.5 ± 1.3 | 3524 ng·h/mL and 4121 ng·h/mL | 3514 ng·h/mL and 4100 ng·h/mL | 4206 ng/mL and 4836 ng/mL | 1.37 h and 1.50 h | 3.59 h and 4.72 h | 4660 | 10.8 | 262 | 4180 | 1.44 | 4930 | 287 | 4900 | 4870 | 1.44 | 767 | 15 | 253 | 665 | T max [1, 2]: 3 min; AUC(0-t) [1, 11]: 4160 ng·h/mL; AUC(0-t) [1, 7]: 663 ng·h/mL; MRT inf [1, 6]: 1.82 h; Cmax [1, 8]: 707 ng/mL; Tmax [1, 8]: 15 min; half-life [1, 8]: 230 min; MRT inf [1, 8]: 2.12 h; AUC INF_obs [1, 10]: 469 ng·h/mL and 947 ng·h/mL and 579 ng·h/mL; AUC last [1, 10]: 467 ng·h/mL and 945 ng·h/mL and 576 ng·h/mL; C max [1, 10]: 942 ng/mL and 651 ng/mL; MRT INF_obs [1, 10]: 1.68 h and 1.64 h; T1/2 [1, 10]: 3.85 h and 4.96 h |
| Cc1cnc(C(=O)N[C@@H](CC2CCCCC2)C(=O)N[C@@H](C[C@@H]2CCNC2=O)C(=O)C(=O)NCc2ccccc2)o1 [Example A242, N—((S)-1-(((S)-4-(benzylamino)-3,4-dione-1-((S)-2-oxopyrrolidine-3-yl)but-2-yl)amino)-3-cyclohexyl-1-oxopropan-2-yl)-5-methyloxazole-2-carboxamide] | 2.2 ± 0.8 | 5808 ng·h/mL and 6750 ng·h/mL | 5779 ng·h/mL and 6628 ng·h/mL | 4739 ng/mL and 5334 ng/mL | 1.85 h and 2.45 h | 4.37 h and 6.75 h | 5490 | 15 | 319 | 6960 | 2.07 | 6400 | 291 | 8320 | 8260 | 1.92 | 409 | 15 | 271 | 493 | AUC(0-t) [1, 11]: 6890 ng·h/mL; Tmax [1, 4]: 15 min; AUC(0-t) [1, 7]: 488 ng·h/mL; MRT inf [1, 6]: 2.56 h; Tmax [1, 8]: 15 min; half-life [1, 8]: 240 min; AUC(0-inf) [1, 8]: 436 ng·h/mL; AUC(0-t) [1, 9]: 434 ng·h/mL; MRT inf [1, 8]: 2.13 h; AUC INF_obs [1, 10]: 413 ng·h/mL and 629 ng·h/mL; AUC last [1, 10]: 409 ng·h/mL and 622 ng·h/mL; C max [1, 10]: 499 ng/mL and 247 ng/mL and 482 ng/mL; MRT INF_obs [1, 10]: 2.84 h and 2.71 h; T1/2 [1, 10]: 4.63 h and 4.91 h |
